Toxic doses and inconclusive results are not listed. How the source made its calls: active means survival T/C of 150% or more; inactive means T/C below 125% in these data.
Tested on: BDF1 mice, P388 leukemia ip, median survival T/C
Assay: NCI In Vivo Anticancer Drug Screen. Data for tumor model P388 Leukemia (intraperitoneal) in B6D2F1 (BDF1) mice
Details: endpoint: median survival time, higher = longer survival
Method in brief: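 Antitumour effect was judged in vivo: survival in drug-treated mice, normalised to that of vehicle-dosed controls, gives the reported T/C.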

[1] = dose: 100.0 mg/kg/injection, schedule: Q01DX009 (ip), vehicle: saline with Tween-80
[2] = dose: 200.0 mg/kg/injection, schedule: Q01DX009 (ip), vehicle: saline with Tween-80
[3] = dose: 400.0 mg/kg/injection, schedule: Q01DX009 (ip), vehicle: saline with Tween-80
[4] = dose: 100.0 mg/kg/injection, schedule: Q04DX003 (ip), vehicle: saline with Tween-80
[5] = dose: 200.0 mg/kg/injection, schedule: Q04DX003 (ip), vehicle: saline with Tween-80
[6] = dose: 400.0 mg/kg/injection, schedule: Q04DX003 (ip), vehicle: saline with Tween-80
[7] = dose: 50.0 mg/kg/injection, schedule: Q01DX009 (ip), vehicle: saline with Tween-80
[8] = dose: 25.0 mg/kg/injection, schedule: Q01DX009 (ip), vehicle: saline with Tween-80

Measured: T/C

O=C(N/N=C/c1cccc(S(=O)(=O)O)c1)c1ccncc1
inactive: [1] 97 % of control | [2] 86 % of control | [3] 94 % of control

COc1ccc(CC(=O)NCCN(CCN(CCO)C(=O)Cc2ccc(OC)cc2)C(=O)Cc2ccc(OC)cc2)cc1
inactive: [1] 105 % of control | [4] 120 % of control | [2] 95 % of control | [5] 100 % of control | [3] 100 % of control | [6] 105 % of control

CN(C)CC(=O)N/N=C\c1ccc([N+](=O)[O-])s1
inactive: dose: 25.0 mg/kg/injection, schedule: Q04DX003 (ip), vehicle: saline 87 % of control | dose: 50.0 mg/kg/injection, schedule: Q04DX003 (ip), vehicle: saline 87 % of control | dose: 100.0 mg/kg/injection, schedule: Q04DX003 (ip), vehicle: saline 91 % of control

O=C(O)Cc1nc(Cl)ccc1Cl
inactive: [7] 106 % of control | [1] 100 % of control | [2] 92 % of control

Nc1ccc(OC(=O)Oc2ccc(N)cc2)cc1
inactive: dose: 264.0 mg/kg/injection, schedule: Q01DX009 (ip), vehicle: saline with Tween-80 100 % of control | [3] 104 % of control

COc1cccc(CCCC(=O)CS(C)=O)c1 (configuration not stated)
inactive: dose: 50.0 mg/kg/injection, schedule: Q01DX009 (ip), vehicle: saline 98 % of control | dose: 100.0 mg/kg/injection, schedule: Q01DX009 (ip), vehicle: saline 102 % of control | dose: 200.0 mg/kg/injection, schedule: Q01DX009 (ip), vehicle: saline 109 % of control

CC(Br)C(=O)NC(C)C(=O)O (configuration not stated)
inactive: [4] 100 % of control | [5] 109 % of control | [6] 118 % of control

Clc1ccc(CNc2ncnc3[nH]ncc23)cc1Cl
inactive: dose: 12.5 mg/kg/injection, schedule: Q01DX009 (ip), vehicle: saline with Tween-80 100 % of control | [8] 100 % of control | [7] 100 % of control

O=C(O)c1cc[c]([Hg][S]c2ncnc3nc[nH]c23)cc1
inactive: dose: 25.0 mg/kg/injection, schedule: Q01DX009 (ip), vehicle: suspension in saline 119 % of control

CN1CCCCCC1
inactive: dose: 150.0 mg/kg/injection, schedule: Q01DX009 (ip), vehicle: saline 95 % of control | dose: 225.0 mg/kg/injection, schedule: Q01DX009 (ip), vehicle: saline 104 % of control | dose: 335.0 mg/kg/injection, schedule: Q01DX009 (ip), vehicle: saline 86 % of control

CN(C)C1C(=O)C(C(=O)NCNC(CCS(C)=O)C(=O)O)=C(O)C2(O)C(=O)C3=C(O)c4c(O)cccc4C(C)(O)C3CC12 (configuration not stated)
inactive: dose: 100.0 mg/kg/injection, schedule: Q01DX001 (ip), vehicle: saline 100 % of control | dose: 200.0 mg/kg/injection, schedule: Q01DX001 (ip), vehicle: saline 90 % of control | dose: 400.0 mg/kg/injection, schedule: Q01DX001 (ip), vehicle: saline 86 % of control

COC(=O)c1ncccc1C(=O)O
inactive: [8] 86 % of control | [7] 95 % of control | [1] 90 % of control

O=c1[nH]cnc2ccc(Cl)cc12
inactive: dose: 37.5 mg/kg/injection, schedule: Q01DX009 (ip), vehicle: saline with Tween-80 92 % of control | dose: 37.5 mg/kg/injection, schedule: Q04DX003 (ip), vehicle: saline with Tween-80 92 % of control | dose: 75.0 mg/kg/injection, schedule: Q01DX009 (ip), vehicle: saline with Tween-80 96 % of control

O=[N+]([O-])c1ccccc1NC1c2ccccc2Oc2ccccc21
inactive: dose: 100.0 mg/kg/injection, schedule: Q04DX003 (ip), vehicle: Klucel (hydroxypropylcellulose) (HPC) 116 % of control | dose: 200.0 mg/kg/injection, schedule: Q04DX003 (ip), vehicle: Klucel (hydroxypropylcellulose) (HPC) 122 % of control | dose: 400.0 mg/kg/injection, schedule: Q04DX003 (ip), vehicle: Klucel (hydroxypropylcellulose) (HPC) 122 % of control
